Assay results reported in patent publication US9486461B2, “Methods and compositions for inducing apoptosis by stimulating ER stress” (UNIVERSITY OF SOUTHERN CALIFORNIA, priority 2007, dated 2016).

What was measured:
[1] = system: U251 glioblastoma cells; test: Colony forming assay, U251; format: cell-based, human; conditions: U251, 30 and 50 μmol/L, 48 hours
Procedure: U251 glioblastoma cells were treated with different drugs, and various parameters of cell growth and cell death were comparatively analyzed. As controls, cells remained either non-treated (Co) or were treated with the solvent DMSO alone. (FIG. 8A) Cells were treated with 30 or 50 μM DMC for 48 hours and the effects on cell growth/survival and on cell death were determined by various assays. […] Below the three panels, the expression levels of the ER stress indicators CHOP, GRP78, and caspase 4 at the end of the 48 hour drug treatment is shown, as determined by Western blot analysis with specific antibodies (actin served as a loading control. (FIG. 8B) Cells were treated with various concentrations of different drugs for 48 hours, as indicated, and cell death was measured with the cell death ELISA kit. (FIG. 8C) Cells were treated with DMC or various coxibs and traditional NSAIDs for 48 hours, as indicated, and cell growth and survival was determined with the conventional MTT assay (control, non-treated cells were set at 100%). […] In parallel, the expression levels of CHOP and GRP78 protein were determined by Western blot analysis.
Twenty-four hours after transfection with small interfering RNA (siRNA), the cells were seeded into six-well plates at 200 cells per well. […] Colonies were visualized by staining for 4 h with 1% methylene blue (in methanol) and then counted.

[2] = system: U251 glioblastoma cells; test: TUNEL assay in cell culture, U251; format: cell-based, human; conditions: U251, 30 and 50 μmol/L, 48 hours
Procedure: (§1) U251 glioblastoma cells were treated with different drugs, and various parameters of cell growth and cell death were comparatively analyzed. As controls, cells remained either non-treated (Co) or were treated with the solvent DMSO alone. (FIG. 8A) Cells were treated with 30 or 50 μM DMC for 48 hours and the effects on cell growth/survival and on cell death were determined by various assays. […] Below the three panels, the expression levels of the ER stress indicators CHOP, GRP78, and caspase 4 at the end of the 48 hour drug treatment is shown, as determined by Western blot analysis with specific antibodies (actin served as a loading control. (FIG. 8B) Cells were treated with various concentrations of different drugs for 48 hours, as indicated, and cell death was measured with the cell death ELISA kit. (FIG. 8C) Cells were treated with DMC or various coxibs and traditional NSAIDs for 48 hours, as indicated, and cell growth and survival was determined with the conventional MTT assay (control, non-treated cells were set at 100%). MTT assays were performed in 96-well plates with the use of 3.0-8.0×10^3 cells per well as described in detail elsewhere (34). In parallel, the expression levels of CHOP and GRP78 protein were determined by Western blot analysis.
We next investigated the relationship of ER stress induction and cell death. […]

[3] = system: U251 glioblastoma cells; test: Colony formation assay after siRNA transfection, U251; format: cell-based, human; conditions: 48 h
Procedure: U251 glioblastoma cells were transiently transfected with si-RNA directed at GRP78 (si-GRP78) or caspase 4 (si-Casp 4). As a control, an siRNA targeted at green fluorescent protein (si-GFP) was used. […] After 48 hours of drug treatment, the drugs were removed and the fraction of surviving cells was determined by colony forming assays. Shown is the percentage of surviving cells (where the number of colonies under non-drug treated conditions was set to 100%). […] (B) In order to verify the effectiveness of the si-RNAs, Western blot analysis of the target proteins was performed. Note that the knock-down of GRP78 leads to increased levels of CHOP protein, as expected from the model of ER stress, where GRP78 signaling is upstream of CHOP.
U251 cells were transiently transfected with si-RNA directed at GRP78 (si-GRP78). As a control, an siRNA targeted at green fluorescent protein (si-GFP) was used. […] In parallel, transfected control cultures received no drug treatment or treatment with solvent (DMSO) alone. After 48 hours, the drugs were removed and the fraction of surviving cells was determined by colony forming assays over the course of 12-14 days. […]
Twenty-four hours after transfection with small interfering RNA (siRNA), the cells were seeded into six-well plates at 200 cells per well. […] Colonies were visualized by staining for 4 h with 1% methylene blue (in methanol) and then counted. […]

[4] = system: U87 glioblastoma tumors; test: Tumor growth in xenograft nude mouse model; format: in vivo, nude mice; conditions: daily chow for DMC, 40 mg/kg for rofecoxib, n=5
Procedure: Once palpable tumors had formed, the animals received daily chow supplemented with DMC, rofecoxib, or no drug. Tumor size was determined every three days. Shown is the average (mean±SD) tumor volume in each group (n=5). Asterisks (**): p<0.01 between control and DMC-treated animals on day 42.

[5] = system: polyubiquitinated proteins in U251 cells; test: Western blot of polyubiquitinated proteins, U251; format: cell-based, human; conditions: U251, increasing concentrations, 24 hours
Procedure: Total cell lysates were analyzed by Western blot with specific antibodies to ubiquitin, GRP78, CHOP, and caspase 4. Actin was used as a loading control. […] Note that in the caspase 4 blots several non-specific background bands were observed (consistent with similar observations in the literature); the specific bands were identified with the use of various controls (not shown) and comparison to the literature.
Total cell lysates were prepared and analyzed by Western blot analysis as described earlier (19). Immunohistochemical analysis of protein expression in tumor tissues was performed with the use of the Vectastain avidin-biotin complex method kit (Vector Laboratories) as described previously (32). The primary antibodies were purchased from Cell Signaling Technology or Santa Cruz Biotechnology, Inc. and used according to the manufacturers' recommendations. All immunoblots and stainings were repeated at least once to confirm the results.

[6] = system: CHOP, GRP78, caspase 4 in U251 glioblastoma cells; test: Western blot of ER stress indicators in U251 cells; format: cell-based, human; conditions: U251, 30 and 50 μmol/L, 48 hours
[7] = system: U251 glioblastoma cells; test: Cell death ELISA, U251; format: cell-based, human; conditions: U251, 48 hours, concentrations of up to 100 μmol/L
Procedure: as §1
Apoptosis in cell cultures in vitro was determined by using the Cell Death Detection ELISA kit (Roche Diagnostics, Indianapolis, Ind.) according to the manufacturer's instructions. This immunoassay specifically detects the histone region (H1, H2A, H2B, H3, and H4) of mononucleosomes and oligonucleosomes that are released during apoptosis. Ninety-six-well plates were seeded with 1,000 cells per well and read at 405 nm in a Microplate Autoreader (Model EL 311 SX; Bio-Tek Instruments, Inc., Winooski, Vt.).

| Structure (SMILES) | survival in colony-forming assays [1] | apoptosis (TUNEL) [2] | cell survival when GRP78 levels were reduced by siRNA (vs si-GFP) ([3]; U251, 40 μM Cxb or 30 μM DMC) | cell survival when caspase-4 expression was diminished by siRNA (vs si-GFP) ([3]; U251, 60 μM Cxb or 40 μM DMC) | tumor growth on longer-term therapy [4] | accumulation of polyubiquitinated proteins [5] | stimulation of the ESR (CHOP, GRP78, caspase-4 cleavage) [6] | induction of cell death/apoptosis (cell death ELISA) [7] |
| --- | --- | --- | --- | --- | --- | --- | --- | --- |
| Cc1ccc(C)c(-c2cc(C(F)(F)F)nn2-c2ccc(S(N)(=O)=O)cc2)c1 [DMC, 4-[5-(2,5-dimethylphenyl)-3-(trifluoromethyl)-1H-pyrazol-1-yl]benzenesulfonamide] | greatly reduced survival | substantially increased apoptosis | less cell survival | increased | significantly reduced tumor growth | did not cause substantial accumulation of polyubiquitinated proteins | potently stimulated the ESR |  |
| Cc1ccc(-c2cc(C(F)(F)F)nn2-c2ccc(S(N)(=O)=O)cc2)cc1 [celecoxib, 4-[5-(4-methylphenyl)-3-(trifluoromethyl)-1H-pyrazol-1-yl]benzenesulfonamide] |  |  |  |  |  |  |  | able to induce cell death/apoptosis |
